Reference: patent publication US8703953B2, “Aryl ether-base kinase inhibitors” (Bristol-Myers Squibb Company, priority 2012, dated 2014)

How the values were obtained:
GST-Xa-hAAK1 = target: T1, GST-Xa-hAAK1 (Homo sapiens, UniProt Q2M2I8); test: AAK1 Kinase Assay (Caliper LabChip, fluoresceinated peptide substrate); format: biochemical; details: ATP 22 μM
T1 construct: made in house
Procedure: The assays were performed in U-bottom 384-well plates. The final assay volume was 30 μl prepared from 15 μl additions of enzyme and substrates (fluoresceinated peptide (5-FAM)-Aha-[…]-NH2 and ATP) and test compounds in assay buffer (10 mM Tris-HCL pH 7.4, 10 mM MgCl2, 0.01% Tween-20 and 1.0 mM DTT). The reactions were initiated by the combination of bacterially expressed, GST-Xa-hAAK1 with substrates and test compounds. The reactions were incubated at room temperature for 3 hours and terminated by adding 60 μl of 35 mM EDTA buffer to each sample. The reactions were analyzed on the Caliper LabChip 3000 (Caliper, Hopkinton, Mass.) by electrophoretic separation of the fluorescent substrate and phosphorylated product. […] The final concentration of reagents in the assays are ATP, 22 μM; (5-FAM)-Aha-[…]-NH2, 1.5 μM; GST-Xa-hAAK1, 3.5 nM; and DMSO, 1.6%. Dose response curves were generated to determine the concentration required inhibiting 50% of kinase activity (IC50). Compounds were dissolved at 10 mM in dimethylsulfoxide (DMSO) and evaluated at eleven concentrations. IC50 values were derived by non-linear regression analysis.

AAK1 (full length human) = target: T2, AAK1 (full length human) (Homo sapiens, UniProt Q2M2I8); test: HEK281 Cell-Based Assay (HEK293F cells transfected with AAK1 and AP2M1; phospho-mu2 Western blot); details: 3 h
T2 construct: HA; expressed in transfected cells; host or cells: HEK293F
T2 sequence (Q2M2I8 whole entry): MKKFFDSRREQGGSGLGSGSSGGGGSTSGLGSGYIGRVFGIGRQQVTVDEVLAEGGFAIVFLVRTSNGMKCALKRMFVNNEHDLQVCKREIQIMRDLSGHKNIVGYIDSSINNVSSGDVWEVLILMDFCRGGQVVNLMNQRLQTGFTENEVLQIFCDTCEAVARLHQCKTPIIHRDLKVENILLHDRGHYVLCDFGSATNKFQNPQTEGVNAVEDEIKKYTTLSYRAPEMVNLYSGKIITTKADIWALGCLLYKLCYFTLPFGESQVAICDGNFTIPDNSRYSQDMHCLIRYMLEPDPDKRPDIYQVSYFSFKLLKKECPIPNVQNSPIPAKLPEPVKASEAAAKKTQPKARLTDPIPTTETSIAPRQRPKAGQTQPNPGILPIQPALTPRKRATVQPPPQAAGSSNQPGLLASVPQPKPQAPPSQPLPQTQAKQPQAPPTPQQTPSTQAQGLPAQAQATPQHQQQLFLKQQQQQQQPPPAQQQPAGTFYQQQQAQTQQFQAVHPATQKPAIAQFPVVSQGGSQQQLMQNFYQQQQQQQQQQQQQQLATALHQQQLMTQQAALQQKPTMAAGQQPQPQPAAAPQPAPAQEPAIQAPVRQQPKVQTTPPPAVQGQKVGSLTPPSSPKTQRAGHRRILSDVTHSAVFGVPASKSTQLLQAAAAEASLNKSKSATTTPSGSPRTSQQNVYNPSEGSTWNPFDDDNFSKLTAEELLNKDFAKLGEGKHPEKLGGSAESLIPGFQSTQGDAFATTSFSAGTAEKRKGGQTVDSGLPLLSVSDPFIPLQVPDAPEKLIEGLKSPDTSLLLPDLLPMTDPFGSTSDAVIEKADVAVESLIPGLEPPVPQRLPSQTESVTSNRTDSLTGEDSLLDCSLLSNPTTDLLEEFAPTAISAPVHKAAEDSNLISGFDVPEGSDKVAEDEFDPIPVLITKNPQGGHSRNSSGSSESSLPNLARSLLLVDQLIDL
Procedure: HEK293F cells were cultured in media containing DMEM (Gibco, cat. #11965), 10% FBS (SAFC Biosciences, cat. #12103C), 1× GPS (glutamine, penicillin and streptomycin). On day one, cells were plated on a 10 cm dish so that they are ˜80% confluent at time of transfection. Roughly 12 million cells were in a 10 cm dish at time of transfection. On day two, each dish was transfected with 48 ug DNA and 144 μl Lipofectamine 2000 (Invitrogen, cat. #11668-019). The DNA was comprised of a mixture (per 10 cm dish) containing 3 ug AAK1/HA/pIRES (full length human, NCBI accession no. NP_055726.2), 45 μg Flag/AP2MI/pcDNA (full length human), and 1.5 ml OPTI-MEM. The Lipofectamine 2000 is made up of a mixture (per 10 cm dish) containing 144 μl Lipofectamine 2000 and 1.5 ml OPTI-MEM. Each mixture was transferred to individual 15 ml tubes and incubated at RT for 5 minutes, and then the two mixes were combined and incubated at RT for 20 minutes. Growth media was then aspirated from each 10 cm plate and replaced with 10 ml of DMEM+10% FBS (no GPS). Finally, 3 ml DNA/Lipofectamine mix was added to each 10 cm dish and mix gently followed by incubate of plate overnight at 37° C. and 5% CO2.
On day three, compounds were diluted in 100% DMSO at 1000× final concentration, followed by 3-fold serial dilutions for a total of 5 concentrations tested. Four compounds were tested per 10 cm dish. One ul of each compound dilution was then pipetted into a deep-well, 96-well plate, followed by addition of 500 μl DMEM+0.5% FBS into each well for a 2× final concentration of each compound. Cells were resuspended in a 10 cm dish by simple pipetting (HEK293 cells come off the plate that easy at this point) and then transferred to a 50 ml conical tube and pelleted by centrifugation at 1000 rpm for 5 min. Cell pellets were then resuspended in 2.75 ml DMEM+0.5% FBS per 10 cm dish and 100 μl of cell suspension transferred into each well of 96-well TC plate. Finally, 100 μl of 2× compound diluted in DMEM+0.5% FBS was then added into wells containing cell suspension for a 1× final concentration. Plates were then incubated at 37° C. and 5% CO2 for 3 hours followed by transferring of cell suspensions from each well into 12-tube PCR strips. The PCR strips were spun in a tip rack at 1000 rpm for 5 minutes to pellet cells and media was then removed by pipetting without disturbing the cell pellet.
To prepare for Western Blot analysis, cell pellets were resuspend in 40 ul 1× LDS-PAGE sample buffer (Invitrogen, cat. #NP0008)+2× Halt phophatase and protease inhibitor cocktail (Thermo Scientific, cat. #1861284), followed by sonicating each with microtip sonicator set at 5 for 8-10 seconds. Five ul of 10× NuPage Sample Reducing Agent (with […]) was to each sample followed by heat denaturing at 70C for 10 min on PCR machine. A total of 10 μl per sample was loaded into each lane of a 4-20% Tris-Glycine Criterion 26-well gel (Biorad, cat. #345-0034) for the phospho-mu2 blot and 10 μl per lane in a 4-12% Bis-Tris (+MES buffer) NuPAGE 26-well gel (Invitrogen, cat. #WG1403BX10) for the mu2 blot. For controls, 2 ng of phospho-mu2 or 20 ng mu2/Flag proteins were loaded in the last well of each gel. After SDS-PAGE, samples on each gel were transferred to PVDF membrane using an iBlot and membranes were blocked for one hour in TBST+5% milk, followed by wash 3× for 5-10 min with TBST. Criterion gels were probed with rabbit anti-phospho-mu2 (1:5000; a rabbit polyclonal antibody produced by New England Peptide and affinity purified at Lexicon) in TBST+5% BSA, whereas, NuPAGE gels were probed with mouse anti-Flag (1:500; Sigma, cat. #F1804) in TBST+5% milk, and these primary antibodies were incubated overnight at 4° C. on a rocker. […]

T1 sequence (Q2M2I8 whole entry): as above

Row | SMILES | IC50 (GST-Xa-hAAK1; listed as IC50 ranges) [nM] | further results
1 | CC(C)C[C@H](N)COc1ccc2c(c1)OCc1cnc(N)cc1-2 [Example 33, (S)-8-(2-amino-4-methylpentyloxy)-5H-chromeno[3,4-c]pyridin-2-amine] | 10 to 100 | IC50 (AAK1 (full length human); listed as IC50 ranges): 10 to 100 nM
2 | COc1c(OC[C@@H](N)CC(C)C)ccc2c1OCc1cnc(NC(C)=O)cc1-2 [Example 37, (S)-N-(8-((2-amino-4-methylpentyl)oxy)-7-methoxy-5H-chromeno[3,4-c]pyridin-2-yl)acetamide] | 10 to 100 | IC50 (AAK1 (full length human); listed as IC50 ranges): 1 to 10 nM
3 | CC(=O)Nc1cc2c(cn1)COc1cc(OCC(N)CCC(F)(F)F)ccc1-2 (racemic) [Example 36, N-(8-((2-amino-5,5,5-trifluoropentyl)oxy)-5H-chromeno[3,4-c]pyridin-2-yl)acetamide] | 10 to 100 | IC50 (AAK1 (full length human); listed as IC50 ranges): 1 to 10 nM
4 | CC[C@H](N)COc1ccc2c(c1)OCc1cnccc1-2 [Example 4, (S)-1-(5H-chromeno[3,4-c]pyridin-8-yloxy)butan-2-amine] | 10 to 100 | 
5 | CC(C)C[C@H](N)COc1ccc2c(c1)OCc1cnc(NC(=O)C3CC3)cc1-2 [Example 42, (S)-N-(8-(2-amino-4-methylpentyloxy)-5H-chromeno[3,4-c]pyridin-2-yl)cyclopropanecarboxamide] |  | IC50 (GST-Xa-hAAK1; numeric values): 0.5 nM; IC50 (AAK1 (full length human); numeric values): 2.1 nM
6 | CC(=O)Nc1cc2c(cn1)COc1cc(OCC(C)(N)CC(C)C)ccc1-2 (racemic) [Example 44, N-(8-(2-amino-2,4-dimethylpentyloxy)-5H-chromeno[3,4-c]pyridin-2-yl)acetamide] | 1 to 10 | IC50 (AAK1 (full length human); listed as IC50 ranges): 10 to 100 nM
7 | CC(=O)Nc1cc2c(cn1)COc1c-2ccc(OC[C@@H](N)CC(C)C)c1F [Example 41, (S)-N-(8-((2-amino-4-methylpentyl)oxy)-7-fluoro-5H-chromeno[3,4-c]pyridin-2-yl)acetamide] |  | IC50 (GST-Xa-hAAK1; numeric values): 0.3 nM; IC50 (AAK1 (full length human); numeric values): 2.1 nM
8 | CC(C)C[C@H](N)COc1ccc2c(c1)OCc1cnccc1-2 [Example 5, (S)-1-(5H-chromeno[3,4-c]pyridin-8-yloxy)-4-methylpentan-2-amine] |  | IC50 (GST-Xa-hAAK1; numeric values): 3.3 nM; IC50 (AAK1 (full length human); numeric values): 8.4 nM
9 | CC(C)C[C@H](N)COc1cc2c(cc1C#N)-c1ccncc1CO2 [Example 23, (S)-8-(2-amino-4-methylpentyloxy)-5H-chromeno[3,4-c]pyridine-9-carbonitrile] | 1 to 10 | 
10 | CC(=O)Nc1cc2c(cn1)C(C)Oc1cc(OC[C@@H](N)CC(C)C)ccc1-2 (stereo partly drawn) [Example 30, N-(8-(((S)-2-amino-4-methylpentyl)oxy)-5-methyl-5H-chromeno[3,4-c]pyridin-2-yl)acetamide] | 10 to 100 | 
11 | CC(=O)Nc1cc2c(cn1)COc1cc(OC[C@H](N)CC(C)C)ccc1-2 [Example 40, (R)-N-(8-(2-amino-4-methylpentyloxy)-5H-chromeno[3,4-c]pyridin-2-yl)acetamide] | 1 to 10 | 
12 | CC(C)C[C@@H](N)COc1ccc2c(c1)OC(C1CC1)c1cnccc1-2 (single isomer, unassigned) [Example 9b] |  | IC50 (AAK1 (full length human); numeric values): > 300 nM
13 | CC(C)C[C@@H](N)COc1ccc2c(c1)OCc1cnccc1-2 [Example 1, (R)-1-(5H-chromeno[3,4-c]pyridin-8-yloxy)-4-methylpentan-2-amine] |  | IC50 (GST-Xa-hAAK1; numeric values): 20 nM
14 | Cc1cc2c(cn1)COc1cc(OC[C@@H](N)CC(C)C)ccc1-2 [Example 39, (S)-4-methyl-1-((2-methyl-5H-chromeno[3,4-c]pyridin-8-yl)oxy)pentan-2-amine] | 100 to 1000 | 
15 | N[C@@H](COc1ccc2c(c1)OCc1cnccc1-2)Cc1ccccc1 [Example 2, (R)-1-(5H-chromeno[3,4-c]pyridin-8-yloxy)-3-phenylpropan-2-amine] | 100 to 1000 | 
16 | Cc1nccc2c1c(=O)oc1cc(OC[C@@H](N)CC(C)C)ccc12 [Example 34, (S)-8-((2-amino-4-methylpentyl)oxy)-4-methyl-5H-chromeno[3,4-c]pyridin-5-one] | 10 to 100 | 

The next lines start with results.

Row | IC50 (GST-Xa-hAAK1; listed as IC50 ranges) [nM] | SMILES | further results
17 | 10 to 100 | CCC1Oc2cc(OC[C@@H](N)CC(C)C)ccc2-c2ccncc21 (single isomer, unassigned) [Example 10a] | IC50 (AAK1 (full length human); listed as IC50 ranges): 10 to 100 nM
18 | 10 to 100 | CC(C)C[C@H](N)COc1ccc2c(c1)OC(C1CC1)c1cnccc1-2 (mixture of isomers) [Example 8, (2S)-1-(5-cyclopropyl-5H-chromeno[3,4-c]-pyridin-8-yloxy)-4-methylpentan-2-amine] | IC50 (AAK1 (full length human); listed as IC50 ranges): 10 to 100 nM
19 | 10 to 100 | CC(C)C[C@@H](N)COc1ccc2c(c1)OC(C)c1cnccc1-2 (single isomer, unassigned) [Example 7b] | 
20 | 10 to 100 | CC(C)C[C@H](N)COc1ccc2c(c1)OC(CO)(CCl)c1cnccc1-2 (stereo partly drawn) [Example 20, (8-(((S)-2-amino-4-methylpentyl)oxy)-5-(chloromethyl)-5H-chromeno[3,4-c]pyridin-5-yl)methanol] | 
21 | 100 to 1000 | CC(C)C[C@H](N)COc1ccc2c(c1)OC1(COC1)c1cnccc1-2 [Example 19, (S)-4-methyl-1-(spiro[chromeno[3,4-c]pyridine-5,3′-oxetan]-8-yloxy)pentan-2-amine] | 
22 | 100 to 1000 | CC[C@@H](N)COc1ccc2c(c1)OCc1cnccc1-2 [Example 3, (R)-1-(5H-chromeno[3,4-c]pyridin-8-yloxy)butan-2-amine] | 
23 | 100 to 1000 | CC(C)C[C@@H](N)COc1ccc2c(c1)OC(C1CC1)c1cnccc1-2 (some centres unmarked) [Example 9] | 
24 | 1 to 10 | CC(C)C[C@H](N)COc1cc2c(cc1I)-c1ccncc1C(C)O2 (single isomer, unassigned) [Example 31b] | 
25 | 100 to 1000 | CC(C)C[C@H](N)COc1ccc2c(c1)OC(C1CC1)c1cnccc1-2 (single isomer, unassigned) [Example 8a] | 
26 | 10 to 100 | CC(C)C[C@H](N)COc1ccc2c(c1)OC(C)c1cnc(N)cc1-2 (stereo partly drawn) [Example 29, 8-(((S)-2-amino-4-methylpentyl)oxy)-5-methyl-5H-chromeno[3,4-c]pyridin-2-amine] | 
27 | 1 to 10 | CC(C)C[C@H](N)COc1cc2c(cc1I)-c1ccncc1C(C)O2 (single isomer, unassigned) [Example 31a] | 
28 | 10 to 100 | CCC1Oc2cc(OC[C@@H](N)CC(C)C)ccc2-c2ccncc21 (single isomer, unassigned) [Example 10b] | 
29 | 1 to 10 | CC(C)C[C@H](N)COc1ccc2c(c1)OC(C)c1cnccc1-2 (mixture of isomers) [Example 6, (2S)-4-methyl-1-(5-methyl-5H-chromeno[3,4-c]pyridin-8-yloxy)pentan-2-amine] | 
